Results taken from US10611740B2, “Aryl dihydro-2H-benzo[b][1,4]oxazine sulfonamide and related compounds for use as agonists of RORγ and the treatment of disease” (Lycera Corporation, priority 2015, dated 2020).

What was measured:
Gal4-RORγ-LBD = molecular target: T1, Gal4-RORγ-LBD (Homo sapiens, UniProt P51449); assay: Gal4-RORγ Luciferase Reporter Assay in HEK-293T Cells; format: cell-based; settings: HEK-293 cells
T1 construct: expressed in transfected cells; host or cells: HEK-293 cells (pcDNA3.1neo plasmid)
T1 sequence (P51449 269-508 limits assumed): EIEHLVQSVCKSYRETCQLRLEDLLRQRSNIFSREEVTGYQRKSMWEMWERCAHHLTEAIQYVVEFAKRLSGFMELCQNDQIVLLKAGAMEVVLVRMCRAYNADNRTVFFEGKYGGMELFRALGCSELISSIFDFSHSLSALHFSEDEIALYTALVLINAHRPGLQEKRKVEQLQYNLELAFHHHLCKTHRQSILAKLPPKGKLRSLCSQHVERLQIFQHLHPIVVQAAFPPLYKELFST
Outline: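 In transfected HEK-293 cells (Gal4-RORγ-LBD, Gal4-luciferase), test agents with 2 μM ursolic acid were incubated overnight at 37 °C before luminescent detection. Values are relative to the ursolic-acid-free, compound-free signal (100).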

RORγ-LBD = molecular target: T2, RORγ-LBD (Homo sapiens, UniProt P51449); assay: RORγ-Ligand Binding Domain (LBD) TR-FRET Assay; format: biochemical;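 on TR-FRET Assay Max Response: 665/615 nm ratio relative to signal without ursolic acid or compound set at 100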
T2 construct: made in house; host or cells: SF9 cells (baculovirus)
T2 sequence (P51449 269-508 limits assumed): T1 sequence (P51449 269-508 limits assumed)
Outline: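 Lysate from SF9 cells expressing His-RORγ-LBD is diluted to about 3 nM final in 50 mM Tris pH 7.0 assay buffer. A biotin-tagged SRC1 LXXLL peptide goes in at 200 nM final, plus ursolic acid at 2 μM final. Test compounds carry 1% DMSO final; signal read by TR-FRET.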

[1] = luciferase reporter, with 2 μM ursolic acid

Row | EC50 (Gal4-RORγ-LBD; 2 μM ursolic acid) | EC50 (RORγ-LBD) | EC50 (Gal4-RORγ-LBD; [1]) | Structure (SMILES) | Gal4-RORγ Assay Max Response (Gal4-RORγ-LBD; 2 μM ursolic acid) | TR-FRET Assay Max Response (RORγ-LBD) | Gal4-RORγ Assay Max Response (Gal4-RORγ-LBD; [1])
1 | < 500 nM | < 500 nM | – | CC(C)(C[C@H]1CN(S(=O)(=O)c2cccc(C(F)(F)F)c2)c2cc(-c3cc(F)ccc3C(F)(F)F)ccc2O1)C(=O)O [Compound 32AV, (S)-3-(6-(5-fluoro-2-(trifluoro-methyl)phenyl)-4-((3-(trifluoro-methyl)phenyl)sulfonyl)-3,4-dihydro-2H-benzo[b][1,4]oxazin-2-yl)-2,2-dimethylpropanoic acid] | ** (The symbol “**” indicates a value in the range of greater than 90 to 150) | ** (The symbol “**” indicates a value in the range of greater than 90 to 150) | –
2 | < 500 nM | < 500 nM | – | CC(C)(C[C@H]1CN(S(=O)(=O)c2cccc(C(F)(F)F)c2)c2cc(-c3cc(Cl)cc(F)c3Cl)ccc2O1)C(=O)O [Compound 32AW, (S)-3-(6-(2,5-dichloro-3-fluoro-phenyl)-4-((3-(trifluoromethyl)-phenyl)sulfonyl)-3,4-dihydro-2H-benzo[b][1,4]oxazin-2-yl)-2,2-dimethylpropanoic acid] | ** (The symbol “**” indicates a value in the range of greater than 90 to 150) | ** (The symbol “**” indicates a value in the range of greater than 90 to 150) | –
3 | < 500 nM | < 500 nM | – | Cc1cccc(-c2ccc3c(c2)N(S(=O)(=O)c2cccc(C(F)(F)F)c2)C[C@H](CC(C)(C)C(=O)O)O3)c1Cl [Compound 32AX, (S)-3-(6-(2-chloro-3-methyl-phenyl)-4-((3-(trifluoromethyl)-phenyl)sulfonyl)-3,4-dihydro-2H-benzo[b][1,4]oxazin-2-yl)-2,2-dimethylpropanoic acid] | ** (The symbol “**” indicates a value in the range of greater than 90 to 150) | ** (The symbol “**” indicates a value in the range of greater than 90 to 150) | –
4 | < 500 nM | < 500 nM | – | Cc1c(Cl)cccc1-c1ccc2c(c1)N(S(=O)(=O)c1cccc(C(F)(F)F)c1)C[C@H](CC(C)(C)C(=O)O)O2 [Compound 32AZ, (S)-3-(6-(3-chloro-2-methyl-phenyl)-4-((3-(trifluoromethyl)-phenyl)sulfonyl)-3,4-dihydro-2H-benzo[b][1,4]oxazin-2-yl)-2,2-dimethylpropanoic acid] | ** (The symbol “**” indicates a value in the range of greater than 90 to 150) | ** (The symbol “**” indicates a value in the range of greater than 90 to 150) | –
5 | – | < 500 nM | < 500 nM | COc1cccc(-c2ccc3c(c2)N(S(=O)(=O)c2cccc(C(F)(F)F)c2)C[C@H](CC(C)(C)C(=O)O)O3)c1 [Compound 32B, (S)-3-(6-(3-methoxyphenyl)-4-((3-(trifluoromethyl)phenyl)sulfonyl)-3,4-dihydro-2H-benzo[b][1,4]oxazin-2-yl)-2,2-dimethylpropanoic acid] | – | *** (The symbol “***” indicates a value in the range of greater than 150 to 200) | ** (The symbol “**” indicates a value in the range of greater than 90 to 150)
6 | 500 to 5000 nM | < 500 nM | – | Cc1cccc(C)c1-c1ccc2c(c1)N(S(=O)(=O)c1cccc(C(F)(F)F)c1)C[C@H](CC(C)(C)C(=O)O)O2 [Compound 32BA, (S)-3-(6-(2,6-dimethylphenyl)-4-((3-(trifluoromethyl)phenyl)-sulfonyl)-3,4-dihydro-2H-benzo[b][1,4]oxazin-2-yl)-2,2-dimethylpropanoic acid] | ** (The symbol “**” indicates a value in the range of greater than 90 to 150) | *** (The symbol “***” indicates a value in the range of greater than 150 to 200) | –
7 | < 500 nM | < 500 nM | – | Cc1cc(Cl)cc(-c2ccc3c(c2)N(S(=O)(=O)c2cccc(C(F)(F)F)c2)C[C@H](CC(C)(C)C(=O)O)O3)c1 [Compound 32BB, (S)-3-(6-(3-chloro-5-methyl-phenyl)-4-((3-(trifluoromethyl)-phenyl)sulfonyl)-3,4-dihydro-2H-benzo[b][1,4]oxazin-2-yl)-2,2-dimethylpropanoic acid] | ** (The symbol “**” indicates a value in the range of greater than 90 to 150) | * (The symbol “*” indicates a value in the range of 25 to 90) | –
8 | < 500 nM | < 500 nM | – | CC(C)(C[C@H]1CN(S(=O)(=O)c2cccc(C(F)(F)F)c2)c2cc(-c3cccc(F)c3C(F)(F)F)ccc2O1)C(=O)O [Compound 32BC, (S)-3-(6-(3-fluoro-2-(trifluoromethyl)phenyl)-4-((3-(trifluoromethyl)phenyl)sulfonyl)-3,4-dihydro-2H-benzo[b][1,4]oxazin-2-yl)-2,2-dimethylpropanoic acid] | ** (The symbol “**” indicates a value in the range of greater than 90 to 150) | ** (The symbol “**” indicates a value in the range of greater than 90 to 150) | –
9 | < 500 nM | < 500 nM | – | O=C(O)C1(C[C@H]2CN(S(=O)(=O)c3cccc(C(F)(F)F)c3)c3cc(-c4cc(F)cc(F)c4)ccc3O2)CCC1 [Compound 32BD, (S)-1-((6-(3,5-difluorophenyl)-4-((3-(trifluoromethyl)phenyl)-sulfonyl)-3,4-dihydro-2H-benzo[b][1,4]oxazin-2-yl)methyl)cyclobutane-1-carboxylic acid] | ** (The symbol “**” indicates a value in the range of greater than 90 to 150) | ** (The symbol “**” indicates a value in the range of greater than 90 to 150) | –
10 | < 500 nM | < 500 nM | – | O=C(O)C1(C[C@H]2CN(S(=O)(=O)c3cccc(C(F)(F)F)c3)c3cc(-c4cc(F)ccc4F)ccc3O2)CCC1 [Compound 32BE, (S)-1-((6-(2,5-difluorophenyl)-4-((3-(trifluoromethyl)phenyl)-sulfonyl)-3,4-dihydro-2H-benzo[b][1,4]oxazin-2-yl)methyl)cyclobutane-1-carboxylic acid] | ** (The symbol “**” indicates a value in the range of greater than 90 to 150) | ** (The symbol “**” indicates a value in the range of greater than 90 to 150) | –
11 | < 500 nM | < 500 nM | – | O=C(O)C1(C[C@H]2CN(S(=O)(=O)c3cccc(C(F)(F)F)c3)c3cc(-c4cccc(Cl)c4F)ccc3O2)CCC1 [Compound 32BF, (S)-1-((6-(3-chloro-2-fluoro-phenyl)-4-((3-(trifluoromethyl)-phenyl)sulfonyl)-3,4-dihydro-2H-benzo[b][1,4]oxazin-2-yl)-methyl)cyclobutane-1-carboxylic acid] | ** (The symbol “**” indicates a value in the range of greater than 90 to 150) | *** (The symbol “***” indicates a value in the range of greater than 150 to 200) | –
12 | < 500 nM | < 500 nM | – | CC(C)(C[C@H]1CN(S(=O)(=O)c2cccc(C(F)(F)F)c2)c2cc(-c3cc(F)cc(OC(F)F)c3F)ccc2O1)C(=O)O [Compound 32BG, (S)-3-(6-(3-(difluoromethoxy)-2,5-difluorophenyl)-4-((3-(trifluoromethyl)phenyl)sulfonyl)-3,4-dihydro-2H-benzo[b][1,4]-oxazin-2-yl)-2,2-dimethyl-propanoic acid] | ** (The symbol “**” indicates a value in the range of greater than 90 to 150) | ** (The symbol “**” indicates a value in the range of greater than 90 to 150) | –
13 | 500 to 5000 nM | < 500 nM | – | O=C(O)C1(C[C@H]2CN(S(=O)(=O)c3cccc(C(F)(F)F)c3)c3cc(-c4cc(F)cc(OC(F)F)c4)ccc3O2)CCC1 [Compound 32BH, (S)-1-((6-(3-(difluoromethoxy)-5-fluorophenyl)-4-((3-(trifluoro-methyl)phenyl)sulfonyl)-3,4-dihydro-2H-benzo[b][1,4]oxazin-2-yl)methyl)cyclobutane-l-carboxylic acid] | ** (The symbol “**” indicates a value in the range of greater than 90 to 150) | *** (The symbol “***” indicates a value in the range of greater than 150 to 200) | –
14 | < 500 nM | < 500 nM | – | CC(C)(C[C@H]1CN(S(=O)(=O)c2cccc(C(F)(F)F)c2)c2cc(-c3cc(OC(F)F)ccc3F)ccc2O1)C(=O)O [Compound 32BI, (S)-3-(6-(5-(difluoromethoxy)-2-fluorophenyl)-4-((3-(trifluoromethyl)phenyl)sulfonyl)-3,4-dihydro-2H-benzo[b][1,4]oxazin-2-yl)-2,2-dimethylpropanoic acid] | ** (The symbol “**” indicates a value in the range of greater than 90 to 150) | *** (The symbol “***” indicates a value in the range of greater than 150 to 200) | –
